# The supplement of paper PMC10307832
# Legend:
# Experiment in all cases: relative viability (nuclei count vs DMSO), 5 days (fraction); higher = more cells survive
# LC-2-ad = tested on: LC-2-ad
# In short: (§1)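 Dosing by pin tool came one day after lung cancer cell lines were seeded in 1536-well plates, using either one drug or a fixed anchor-drug dose plus five library-drug doses (not always all listed) in √10 steps. After 5 days, nuclei were counted on 4× images. Relative viability is treated-well nuclei count divided by vehicle-well nuclei count, and values are medians of duplicate plates.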
# ChaGo-K-1 = tested on: ChaGo-K-1
# In short: as §1
# NCI-H2228 = tested on: NCI-H2228
# In short: as §1
# HCC-78 = tested on: HCC-78
# In short: as §1
# NCI-H1944 = tested on: NCI-H1944
# In short: as §1
# NCI-H2087 = tested on: NCI-H2087
# In short: as §1
# LOU-NH91 = tested on: LOU-NH91
# In short: as §1
# PC-3 [JPC-3] = tested on: PC-3 [JPC-3]
# In short: as §1
# NCI-H3122 = tested on: NCI-H3122
# In short: as §1
# NCI-H2170 = tested on: NCI-H2170
# In short: as §1
# CAL-12T = tested on: CAL-12T
# In short: as §1
# NCI-H1793 = tested on: NCI-H1793
# In short: as §1
# RERF-LC-KJ = tested on: RERF-LC-KJ
# In short: as §1
# HCC-366 = tested on: HCC-366
# In short: as §1
# LU99A = tested on: LU99A
# In short: as §1
# NCI-H2405 = tested on: NCI-H2405
# In short: as §1
# NCI-H1755 = tested on: NCI-H1755
# In short: as §1
# NCI-H460 = tested on: NCI-H460
# In short: as §1
# UMC-11 = tested on: UMC-11
# In short: as §1
# NCI-H1395 = tested on: NCI-H1395
# In short: as §1
# NCI-H1651 = tested on: NCI-H1651
# In short: as §1
compound,measurement,setting,value
Cc1sc2c(c1C)C(c1ccc(Cl)cc1)=N[C@@H](CC(=O)OC(C)(C)C)c1nnc(C)n1-2 [JQ1] + Nc1nc2[nH]cc(CCc3ccc(C(=O)N[C@@H](CCC(=O)O)C(=O)O)cc3)c2c(=O)[nH]1 [Pemetrexed] (partner 0.2 µM),relative viability,LC-2-ad; first compound 0.04 µM,0.268
same,relative viability,LC-2-ad; first compound 0.1265 µM,0.258
same,relative viability,LC-2-ad; first compound 0.4 µM,0.244
same,relative viability,LC-2-ad; first compound 1.265 µM,0.256
same,relative viability,LC-2-ad; first compound 4 µM,0.209
same,relative viability,ChaGo-K-1; first compound 0.04 µM,0.25
same,relative viability,ChaGo-K-1; first compound 0.1265 µM,0.256
same,relative viability,ChaGo-K-1; first compound 0.4 µM,0.245
same,relative viability,ChaGo-K-1; first compound 1.265 µM,0.252
same,relative viability,ChaGo-K-1; first compound 4 µM,0.243
same,relative viability,NCI-H2228; first compound 0.04 µM,0.362
same,relative viability,NCI-H2228; first compound 0.1265 µM,0.314
same,relative viability,NCI-H2228; first compound 0.4 µM,0.358
same,relative viability,NCI-H2228; first compound 1.265 µM,0.312
same,relative viability,NCI-H2228; first compound 4 µM,0.184
same,relative viability,HCC-78; first compound 0.04 µM,0.87
same,relative viability,HCC-78; first compound 0.1265 µM,0.957
same,relative viability,HCC-78; first compound 0.4 µM,0.977
same,relative viability,HCC-78; first compound 1.265 µM,0.91
same,relative viability,HCC-78; first compound 4 µM,0.866
same,relative viability,NCI-H1944; first compound 0.04 µM,0.74
same,relative viability,NCI-H1944; first compound 0.1265 µM,0.565
same,relative viability,NCI-H1944; first compound 0.4 µM,0.466
same,relative viability,NCI-H1944; first compound 1.265 µM,0.446
same,relative viability,NCI-H1944; first compound 4 µM,0.438
same,relative viability,NCI-H2087; first compound 0.04 µM,0.621
same,relative viability,NCI-H2087; first compound 0.1265 µM,0.675
same,relative viability,NCI-H2087; first compound 0.4 µM,0.692
same,relative viability,NCI-H2087; first compound 1.265 µM,0.558
same,relative viability,NCI-H2087; first compound 4 µM,0.463
same,relative viability,LOU-NH91; first compound 0.04 µM,0.365
same,relative viability,LOU-NH91; first compound 0.1265 µM,0.387
same,relative viability,LOU-NH91; first compound 0.4 µM,0.354
same,relative viability,LOU-NH91; first compound 1.265 µM,0.334
same,relative viability,LOU-NH91; first compound 4 µM,0.362
same,relative viability,PC-3 [JPC-3]; first compound 0.04 µM,1.16
same,relative viability,PC-3 [JPC-3]; first compound 0.1265 µM,1.12
same,relative viability,PC-3 [JPC-3]; first compound 0.4 µM,0.818
same,relative viability,PC-3 [JPC-3]; first compound 1.265 µM,0.751
same,relative viability,PC-3 [JPC-3]; first compound 4 µM,0.374
same,relative viability,NCI-H3122; first compound 0.04 µM,0.193
same,relative viability,NCI-H3122; first compound 0.1265 µM,0.16
same,relative viability,NCI-H3122; first compound 0.4 µM,0.186
same,relative viability,NCI-H3122; first compound 1.265 µM,0.118
same,relative viability,NCI-H3122; first compound 4 µM,0.12
same,relative viability,NCI-H2170; first compound 0.04 µM,0.257
same,relative viability,NCI-H2170; first compound 0.1265 µM,0.263
same,relative viability,NCI-H2170; first compound 0.4 µM,0.248
same,relative viability,NCI-H2170; first compound 1.265 µM,0.238
same,relative viability,NCI-H2170; first compound 4 µM,0.194
same,relative viability,CAL-12T; first compound 0.04 µM,1.22
same,relative viability,CAL-12T; first compound 0.1265 µM,1.18
same,relative viability,CAL-12T; first compound 0.4 µM,1.08
same,relative viability,CAL-12T; first compound 1.265 µM,0.465
same,relative viability,CAL-12T; first compound 4 µM,0.249
same,relative viability,NCI-H1793; first compound 0.04 µM,0.748
same,relative viability,NCI-H1793; first compound 0.1265 µM,0.81
same,relative viability,NCI-H1793; first compound 0.4 µM,0.648
same,relative viability,NCI-H1793; first compound 1.265 µM,0.661
same,relative viability,NCI-H1793; first compound 4 µM,0.78
same,relative viability,RERF-LC-KJ; first compound 0.04 µM,0.487
same,relative viability,RERF-LC-KJ; first compound 0.1265 µM,0.481
same,relative viability,RERF-LC-KJ; first compound 0.4 µM,0.46
same,relative viability,RERF-LC-KJ; first compound 1.265 µM,0.33
same,relative viability,RERF-LC-KJ; first compound 4 µM,0.275
same,relative viability,HCC-366; first compound 0.04 µM,0.16
same,relative viability,HCC-366; first compound 0.4 µM,0.136
same,relative viability,HCC-366; first compound 1.265 µM,0.13
same,relative viability,HCC-366; first compound 4 µM,0.104
same,relative viability,LU99A; first compound 0.04 µM,0.173
same,relative viability,LU99A; first compound 0.4 µM,0.167
same,relative viability,LU99A; first compound 1.265 µM,0.15
same,relative viability,LU99A; first compound 4 µM,0.153
same,relative viability,NCI-H2405; first compound 0.04 µM,1.08
same,relative viability,NCI-H2405; first compound 0.4 µM,0.899
same,relative viability,NCI-H2405; first compound 1.265 µM,0.72
same,relative viability,NCI-H2405; first compound 4 µM,0.321
same,relative viability,NCI-H1755; first compound 0.04 µM,0.444
same,relative viability,NCI-H1755; first compound 0.1265 µM,0.444
same,relative viability,NCI-H1755; first compound 0.4 µM,0.387
same,relative viability,NCI-H1755; first compound 1.265 µM,0.323
same,relative viability,NCI-H1755; first compound 4 µM,0.324
same,relative viability,NCI-H460; first compound 0.04 µM,0.0603
same,relative viability,NCI-H460; first compound 0.1265 µM,0.0567
same,relative viability,NCI-H460; first compound 0.4 µM,0.0624
same,relative viability,NCI-H460; first compound 1.265 µM,0.0611
same,relative viability,NCI-H460; first compound 4 µM,0.07
same,relative viability,UMC-11; first compound 0.04 µM,0.73
same,relative viability,UMC-11; first compound 0.1265 µM,0.584
same,relative viability,UMC-11; first compound 0.4 µM,0.352
same,relative viability,UMC-11; first compound 1.265 µM,0.254
same,relative viability,UMC-11; first compound 4 µM,0.193
same,relative viability,NCI-H1395; first compound 0.04 µM,0.911
same,relative viability,NCI-H1395; first compound 0.1265 µM,0.737
same,relative viability,NCI-H1395; first compound 0.4 µM,0.797
same,relative viability,NCI-H1395; first compound 1.265 µM,0.496
same,relative viability,NCI-H1395; first compound 4 µM,0.343
same,relative viability,NCI-H1651; first compound 0.04 µM,0.589
same,relative viability,NCI-H1651; first compound 0.1265 µM,0.45
same,relative viability,NCI-H1651; first compound 0.4 µM,0.391
same,relative viability,NCI-H1651; first compound 1.265 µM,0.458
same,relative viability,NCI-H1651; first compound 4 µM,0.358
